Assay results taken from patent US8883470B2, “Fermentation of carbohydrate” (Anitox Corporation, priority 2009, dated 2014).
Read-outs that look alike come from different tables or passages of the source.

What was measured:
Yeast [1] = system: Yeast
Protocol: (§5) After 24 h, 30 g of corn from each treatment was finely ground and added to glass fermenters with water, enzyme and yeast as described below. Lactobacillus plantarum (B-4496) grown in MRS broth was added to the fermentation bottles (0.1 ml of 6.2×10^10 cfu/mL). Samples were taken after 72 hours fermentation for yeast and Lactobacillus counts.

Yeast [2] = system: Yeast; remark: listed apart in the source
Protocol: (§1) Ethanol production and microbiological profile were analyzed in four fermentation studies using corn treated with 0 (control), 0.45 and 0.90 Kg/MT Formaldehyde. Ground corn and water were mixed and incubated at room temperature in a air-tight 250-ml fermenter jars for 6 hours. This was done in order to increase the naturally occurring Lactobacillus in corn. Previous studies have shown that the level of Lactobacillus is less than 100 cfu/gr in corn. The other reagents were added into the fermenters as described in the following table.
(§2) After the addition of all the reagents, fermenters were sealed with a cap containing a water trap. Fermenters were kept under constant stirring (low speed) at room temperature (21-23° C.) for 72 hours before sampling for yeast, Lactobacillus and alcohol production. Lactobacillus counts were determined on MRS broth containing 1.5% Difco™ Agar. Plates were incubated in an anaerobic chamber at 37-C for 48 hours and colonies enumerated. Yeast counts were determined on PDA plates. Plates were incubated at 27° C. for 48 hours and colonies enumerated. Alcohol was determined by FT-IR (FOSS system).

Lactobacillus [3] = system: Lactobacillus
Protocol: as §1, §2

[4] = system: Lactobacillus plantarum (B-4496)
Protocol: as §5

Yeast [5] = system: Yeast; remark: listed apart in the source
Protocol: (§3) Whole corn obtained from a commercial source was treated with formalin (37% formaldehyde solution) at 0, 0.9, 1.8 and 2.7 kg/MT. After 24 h, 30 g of corn from each treatment was finely ground and added to glass fermenters with water, enzyme and yeast as described below. Lactobacillus plantarum (B-4496) grown in MRS broth was added to the fermentation bottles (0.2 ml of 6.2×10^5 cfu/g). Samples were taken after 72 hours fermentation for yeast and Lactobacillus counts. The whole content of the fermentations bottles were centrifuged for 30 minutes at 5000 rpm, filtered through cheesecloth and through a 0.45 u tilter to quantify ethanol production. Treatments are listed on the following table

[6] = system: Lactobacillus plantarum (B-4496); conditions: control also 0
Protocol: as §3

wild yeast/mold = system: wild yeast/mold
Protocol: (§4) Wild Lactobacillus and yeast/mold profile were determined in four studies using corn treated with 0 (control), 0.45 and 0.90 Kg/MT Formaldehyde (HCHO). Ground corn and water were mixed and incubated at room temperature (21-23° C.) in an anaerobic environment for 24 hours. To 5 gr of ground corn 45 ml of Butterfield was added and incubated overnight in a closed container while stirring at room temperature. After incubation, samples were taken to enumerate wild yeast/mold and Lactobacillus.

Wild Lactobacillus = system: Wild Lactobacillus
Protocol: as §4

Lactobacillus [7] = conditions: 600 mg/L, cited from earlier work
Lactobacillus [8] = conditions: during fermentation; cited from earlier work
Yeast [9] = conditions: 8 g/L; beet molasses batch fermentation; cited from earlier work
yeast populations = conditions: 100 to 400 mg/L; cited from earlier work
Yeast [10] = conditions: cited from earlier work

C=O [Formaldehyde, formaldehyde]
Yeast (cfu/ml) 72 h (Yeast [1]; 0.9 kg/MT): 8.8 × 10^8 cfu/ml | Yeast (cfu/ml) 72 h (Yeast [1]; 1.8 kg/MT): 6.6 × 10^8 cfu/ml | Yeast (cfu/ml) 72 h (Yeast [1]; 2.7 kg/MT): 8.0 × 10^8 cfu/ml | Yeast (cfu/gr) after 72-h Fermentation (Yeast [2]; 0.45 kg/MT, Study 9): 9.5 × 10^8 cfu/gr | Yeast (cfu/gr) after 72-h Fermentation (Yeast [2]; 0.45 kg/MT, Study 10): 1.2 × 10^9 cfu/gr | Yeast (cfu/gr) after 72-h Fermentation (Yeast [2]; 0.45 kg/MT, Study 11): 4.7 × 10^9 cfu/gr | Yeast (cfu/gr) after 72-h Fermentation (Yeast [2]; 0.45 kg/MT, Study 12): 1.8 × 10^9 cfu/gr | Yeast (cfu/gr) after 72-h Fermentation (Yeast [2]; 0.9 kg/MT, Study 9): 7.4 × 10^8 cfu/gr | Yeast (cfu/gr) after 72-h Fermentation (Yeast [2]; 0.9 kg/MT, Study 10): 1.1 × 10^9 cfu/gr | Yeast (cfu/gr) after 72-h Fermentation (Yeast [2]; 0.9 kg/MT, Study 11): 3.6 × 10^9 cfu/gr | Yeast (cfu/gr) after 72-h Fermentation (Yeast [2]; 0.9 kg/MT, Study 12): 1.8 × 10^9 cfu/gr | Lactobacillus (cfu/gr) after 72-h Fermentation (Lactobacillus [3]; 0.45 kg/MT, Study 9): 8.5 × 10^8 cfu/gr | Lactobacillus (cfu/gr) after 72-h Fermentation (Lactobacillus [3]; 0.45 kg/MT, Study 10): 5.2 × 10^8 cfu/gr | Lactobacillus (cfu/gr) after 72-h Fermentation (Lactobacillus [3]; 0.45 kg/MT, Study 12): 8.9 × 10^8 cfu/gr | Lactobacillus (cfu/gr) after 72-h Fermentation (Lactobacillus [3]; 0.9 kg/MT, Study 9): 7.4 × 10^8 cfu/gr | Lactobacillus (cfu/gr) after 72-h Fermentation (Lactobacillus [3]; 0.9 kg/MT, Study 10): 4.3 × 10^8 cfu/gr | Lactobacillus (cfu/gr) after 72-h Fermentation (Lactobacillus [3]; 0.9 kg/MT, Study 12): 9.4 × 10^8 cfu/gr | Lactobacillus (cfu/ml) 72 h ([4]; 0.9 kg/MT): 9.8 × 10^7 cfu/ml | Lactobacillus (cfu/ml) 72 h ([4]; 1.8 kg/MT): 4.7 × 10^7 cfu/ml | Lactobacillus (cfu/ml) 72 h ([4]; 2.7 kg/MT): 3.7 × 10^7 cfu/ml | decrease in cfu's of Lactobacillus ([4]; Lactobacillus added at higher concentrations): 1 log | Yeast (cfu/ml) 72 h (Yeast [5]; 0.9 kg/MT): 9.50 × 10^8 cfu/ml | Yeast (cfu/ml) 72 h (Yeast [5]; 1.8 kg/MT): 6.60 × 10^8 cfu/ml | Yeast (cfu/ml) 72 h (Yeast [5]; 2.7 kg/MT): 4.20 × 10^8 cfu/ml | Lactobacillus (cfu/ml) 72 h ([6]; 0.9 kg/MT): 0 cfu/ml | Lactobacillus (cfu/ml) 72 h ([6]; 1.8 kg/MT): 0 cfu/ml | Lactobacillus (cfu/ml) 72 h ([6]; 2.7 kg/MT): 0 cfu/ml | Yeast (cfu/gr) after 24-h Incubation (wild yeast/mold; 0.45 kg/MT, Study 1): 3.0 × 10^5 cfu/gr | Yeast (cfu/gr) after 24-h Incubation (wild yeast/mold; 0.45 kg/MT, Study 2): 7.0 × 10^5 cfu/gr | Yeast (cfu/gr) after 24-h Incubation (wild yeast/mold; 0.45 kg/MT, Study 3): 1.6 × 10^5 cfu/gr | Yeast (cfu/gr) after 24-h Incubation (wild yeast/mold; 0.45 kg/MT, Study 4): 3.2 × 10^5 cfu/gr | Yeast (cfu/gr) after 24-h Incubation (wild yeast/mold; 0.9 kg/MT, Study 1): 7.6 × 10^4 cfu/gr | Yeast (cfu/gr) after 24-h Incubation (wild yeast/mold; 0.9 kg/MT, Study 2): 5.6 × 10^6 cfu/gr | Yeast (cfu/gr) after 24-h Incubation (wild yeast/mold; 0.9 kg/MT, Study 3): 2.0 × 10^3 cfu/gr | Yeast (cfu/gr) after 24-h Incubation (wild yeast/mold; 0.9 kg/MT, Study 4): 2.6 × 10^5 cfu/gr | Lactobacillus (cfu/gr) after 24-h Incubation (Wild Lactobacillus; 0.45 kg/MT, Study 1): 4.0 × 10^5 cfu/gr | Lactobacillus (cfu/gr) after 24-h Incubation (Wild Lactobacillus; 0.45 kg/MT, Study 2): 9.3 × 10^5 cfu/gr | Lactobacillus (cfu/gr) after 24-h Incubation (Wild Lactobacillus; 0.45 kg/MT, Study 3): 2.9 × 10^4 cfu/gr | Lactobacillus (cfu/gr) after 24-h Incubation (Wild Lactobacillus; 0.45 kg/MT, Study 4): 7.7 × 10^5 cfu/gr | Lactobacillus (cfu/gr) after 24-h Incubation (Wild Lactobacillus; 0.9 kg/MT, Study 1): 6.2 × 10^4 cfu/gr | Lactobacillus (cfu/gr) after 24-h Incubation (Wild Lactobacillus; 0.9 kg/MT, Study 2): 1.2 × 10^4 cfu/gr | Lactobacillus (cfu/gr) after 24-h Incubation (Wild Lactobacillus; 0.9 kg/MT, Study 3): 9.0 × 10^3 cfu/gr | Lactobacillus (cfu/gr) after 24-h Incubation (Wild Lactobacillus; 0.9 kg/MT, Study 4): 8.1 × 10^4 cfu/gr

O=C(O)CCC(=O)O [Succinic acid]
reduction of Lactobacillus concentrations (Lactobacillus [7]; by itself): 78% | reduction of Lactobacillus concentrations (Lactobacillus [7]; in the presence of ethanol): up to 96%

NC(N)=O.OO [UHP, Urea hydrogen peroxide]
bactericidal activity against Lactobacillus (Lactobacillus [8]): excellent bactericidal activity

CC(O)C(=O)O (centres unmarked) [lactic acid]
reduction of alcohol production rate (Yeast [9]): 80% | reduction of yeast viability (Yeast [9]): 95%

O=S(O)O [sulfite]
effect on yeast populations (yeast populations): did not affect yeast populations

virginiamycin
inhibition of the yeast (Yeast [10]): does not significantly inhibit the yeast
